A short description of assay [1]: Compound was tested for toxicity by the presence of tartrate resistant acid phosphatase (TRAP)-positive cell; Normal. It counts as functional.
The species entered for assay [2] is Oryctolagus cuniculus. Kind of assay: Inhibition of rabbit-osteoclast mediated resorption of dentine slices.
The target in assay [3] is Proto-oncogene tyrosine-protein kinase Src (Homo sapiens, UniProt P12931). As to the kind of experiment: Inhibition of Src protein tyrosine kinase.

Molecules are shown by their SMILES.

Sequence of Proto-oncogene tyrosine-protein kinase Src (P12931 2-536 limits assumed): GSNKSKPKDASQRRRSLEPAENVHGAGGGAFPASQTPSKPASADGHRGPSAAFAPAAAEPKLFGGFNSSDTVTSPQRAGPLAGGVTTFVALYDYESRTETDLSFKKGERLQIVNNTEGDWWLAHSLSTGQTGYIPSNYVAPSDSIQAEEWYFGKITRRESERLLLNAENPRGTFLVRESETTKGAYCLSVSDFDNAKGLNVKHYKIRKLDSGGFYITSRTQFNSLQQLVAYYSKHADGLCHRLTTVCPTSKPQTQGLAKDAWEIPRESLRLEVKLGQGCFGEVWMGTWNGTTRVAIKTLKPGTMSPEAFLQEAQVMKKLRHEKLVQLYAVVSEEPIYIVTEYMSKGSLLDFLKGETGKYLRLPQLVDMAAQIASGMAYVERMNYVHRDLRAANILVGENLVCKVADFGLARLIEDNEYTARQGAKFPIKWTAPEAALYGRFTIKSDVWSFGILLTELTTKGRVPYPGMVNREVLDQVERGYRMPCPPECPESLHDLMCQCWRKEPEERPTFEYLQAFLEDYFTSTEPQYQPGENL

One may read the IC50 as the concentration needed to halve the response being measured. In the case of `Cn1c(=O)c(-c2c(Cl)cccc2Cl)cc2cnc(Nc3cccc(P(=O)(O)CP(=O)(O)O)c3)nc21`, in assay [1], the TRAP staining result is “Not toxic”. The IC50 in assay [2] stood at 4000 nM. In the same order, the values of `CN(C)CCCn1c(=O)c(-c2c(Cl)cccc2Cl)cc2cnc(Nc3ccc(P(=O)(O)CP(=O)(O)O)cc3)nc21` are “Not toxic” and 800 nM. In the case of `Cn1c(=O)c(-c2c(Cl)cccc2Cl)cc2cnc(Nc3ccc(P(=O)(O)CP(=O)(O)O)cc3)nc21`, the TRAP staining result in assay [1] was “Not toxic”. Moreover, the IC50 in assay [2] worked out at 3000 nM. On to `Cn1c(=O)c(-c2c(Cl)cccc2Cl)cc2cnc(Nc3ccccc3)nc21`, for which the IC50 in assay [3] stood at 16 nM.

Values taken from ChEMBL document CHEMBL1136210, “Bone-targeted pyrido[2,3-d]pyrimidin-7-ones: potent inhibitors of Src tyrosine kinase as novel antiresorptive agents” (Bioorg Med Chem Lett, 2003).
